Assay results: patent US10435361B2, “Kinase inhibitors” (Topivert Pharma Limited, priority 2013, dated 2019)
Where two headings read alike, the source gives them in different places.

Tests used:
BDF1 mice = assay: TNBS-induced colitis in mice; format: in vivo; conditions: conducted over 2 days; vehicle corn oil/transcutol/maisine/cremophor ELP
Description: Non-fasted, 10-12 week old, male BDF1 mice are dosed by oral gavage twice daily with either vehicle (5 mL/kg), reference item (Budesonide 2.5 mg/kg) or test compound (1 or 5 mg/kg) one day before (Day −1) stimulation of the inflammatory response by treatment with 2,4,6-trinitrobenzenesulphonic acid (TNBS) (15 mg/mL in 50% ethanol/50% saline). On Day 0 of the study TNBS (200 μL) is administered intra-colonically via a plastic catheter with BID dosing of the vehicle, reference or test compound continuing for 2 or 4 days. During the study, animals are weighed every day and stool observations are made and recorded as a score, based on stool consistency. At the time of sacrifice on Day 2 (or Day 4), the large intestine is removed and the length and weight recorded. Sections of the colon are taken for histopathology scoring to determine disease severity.

[1] = system: Salmonella typhimurium TA98; assay: Bacterial reverse mutation screen, strain TA98; format: cell-based; conditions: presence or absence of S-9 mix; up to 1000 μg/plate analysable
Description: (§1) Studies were conducted by Sequani (Ledbury, Herefordshire, UK) to assess compounds of the invention for their ability to induce mutations in two histidine dependent auxotrophic mutants of Salmonella typhimurium, strains TA98 and TA100 in vitro.
(§2) The mutation screen was conducted using the plate incorporation method and was performed in both the presence and absence of S-9 mix (a liver post-mitochondrial fraction derived from the livers of Aroclor 1254 treated rats). The bacteria were exposed to test compounds dissolved in dimethylsulphoxide, which solvent was also used as the negative control. The dose levels used were 0.32, 1.6, 8, 40, 200, 1000 or 5000 μg/plate.
(§3) Precipitation was also noted in both strains at 1000 μg/plate in the presence and absence of S-9 mix.

SCID animals = assay: Adoptive transfer in mice (CD45RBhigh cells into SCID animals); format: in vivo; conditions: for % Inhibition: Table 6a, inhibition of the induction window between naïve and vehicle animals; for levels of pro-inflammatory cytokines in samples of colon tissue: adoptive transfer model
Description: On Study day 0, female Balb/C mice are terminated and spleens obtained for CD45RB^high cell isolation (Using SCID IBD cell Separation protocol). Approximately 4×10^5 cells/mL CD45RB^high cells are then injected intraperitoneally (100 μL/mouse) into female SCID animals. On study day 14, mice are weighed and randomized into treatment groups based on body weight. On Day 14, compounds are administered BID, via oral gavage, in a peanut oil vehicle at the dose levels outlined below in Tables 6a and 6b and a dose volume of 5 mL/kg. Treatment continues until study day 42, at which point the animals are necropsied 4 hours after the morning administration. The colon length and weight are recorded and used as a secondary endpoint in the study as a measurement of colon oedema. The colon is then divided into six cross-sections, four of which are used for histopathology scoring (primary endpoint) and two are homogenised for cytokine analysis. Data shown is the % inhibition of the induction window between naïve animals and vehicle animals, where higher inhibition implies closer to the non-diseased, naïve, phenotype.

PBMCs [2] = assay: LPS-induced TNFα/IL-8 release in PBMC cells; format: cell-based; conditions: Homo sapiens, assay (b)
In short: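 Healthy-donor PBMCs isolated by density gradient were pretreated with compound for 2 h, then stimulated with 1 ng/mL LPS (E. coli 0111:B4) for 24 h at 37° C., 5% CO2. IL-8 and TNFα in supernatants measured by sandwich ELISA.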

[3] = Hydrolytic stability study (DMSO/water 3:1, 60° C.); format: physicochemical
Description: Chemical stability of compounds of the invention was assessed in a mixture of DMSO and water (3:1) at a test compound concentration of 1 mg/mL
Agilent, Waters X-Select C18, 2.5 μm, 4.6×30 mm column, 4 min method, 5-95%
MeCN/water (0.1% formic acid).
Column Oven Temperature 40° C.
Sample Preparation • A 1.0 mg sample of test compound was dissolved in 750 μL of DMSO. Water (250 μL) was added slowly, ensuring no precipitation occurred.
Recording Stability • A 50 μL aliquot of the test solution was removed and analysed in duplicate by 5 μL HPLC injections. The peak area for the test compound was recorded following manual integration of the corresponding UV trace. • The test solution was heated to 60° C., with stirring, and 50 μL aliquots removed for HPLC analysis at 5 and 24 h timepoints.

PBMCs [4] = assay: Cell mitosis assay in PBMCs; format: cell-based; conditions: Homo sapiens, PBMC, 5 μg/mL
In short: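 Human PBMCs from healthy donors, density-gradient isolated, stimulated with 2% PHA 48 h, then exposed 20 h to test compounds; demecolcine 0.1 μg/mL added 2 h before harvest. Fixed/permeabilised cells stained for phospho-histone H3 and propidium iodide; mitotic lymphocytes counted by flow cytometry.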

[5] = Plasma pharmacokinetics in rats, single intravenous or oral administration; format: in vivo; conditions: male, Wistar, rat; for clearance: rats, intravenous 0.25 mg/kg
Description: Studies were conducted by Sai Life Sciences (Hinjewadi, Pune, India) to investigate the plasma pharmacokinetics and total colon tissue distribution of compounds of the invention. In particular, pharmacokinetic studies were carried out in: • male C57BL/6 mice, following a single oral administration; and • male Wistar rats following a single intravenous or oral administration.

[6] = system: Salmonella typhimurium TA100; assay: Bacterial reverse mutation screen, strain TA100; format: cell-based; conditions: presence or absence of S-9 mix; up to 1000 μg/plate analysable
Description: as §1, §2, §3

[7] = read-out: IC50 Values for Inhibition of Cytokine Release PBMCs IL-8
[8] = po, 5 mg/kg, read-out: Median plasma concentration

Row | SMILES | activity in TNBS-induced colitis (histopathology analysis) (BDF1 mice) | increases in revertant colonies, strain TA98 [1] | levels of pro-inflammatory cytokines in samples of colon tissue (SCID animals) | IC50 (PBMCs [2]; [7]) [nM] | % Parent Remaining ([3]; DMSO/water 3:1, 0 min) [%] | inhibition at 5 µg/mL (PBMCs [4]) [%] | clearance [5] [mL/min/kg] | increases in revertant colonies, strain TA100 [6] | further results
1 | COc1cc(Nc2cc(Oc3ccc(NC(=O)Nc4cc(C(C)(C)C)cc(NS(C)(=O)=O)c4OC)c4ccccc34)ccn2)cc(C(=O)NCCN2CCOCC2)c1 [Example 27, 3-((4-((4-(3-(5-(tert-Butyl)-2-methoxy-3-(methylsulfonamido)phenyl)ureido)naphthalen-1-yl)oxy)pyridin-2-yl)amino)-5-methoxy-N-(2-morpholinoethyl)benzamide] | displayed substantial activity | no dose-related or statistically significant increases in revertant colonies | significantly reduced | 1.9 | 100 | 49.8 | 7.1 | no dose-related or statistically significant increases in revertant colonies | % Inhibition (SCID animals; 3 mg/kg BID oral gavage): 99%
2 | COCCOCCOCCOc1cc(Nc2nccc(Oc3ccc(NC(=O)Nc4cc(C(C)(C)C)cc(NS(C)(=O)=O)c4OC)c4ccccc34)n2)cc(OC)c1 [Example 4, N-(5-(tert-Butyl)-2-methoxy-3-(3-(4-((2-((3-methoxy-5-(2-(2-(2-methoxyethoxy)ethoxy)-ethoxy)phenyl)amino)pyrimidin-4-yl)oxy)naphthalen-1-yl)ureido)phenyl)methanesulfonamide] | displayed substantial activity | no dose-related or statistically significant increases in revertant colonies | significantly reduced | 1.4 | 100 | 43 | 7.9 | no dose-related or statistically significant increases in revertant colonies | % Inhibition (SCID animals; 0.3 mg/kg BID oral gavage): 62%; % Inhibition (SCID animals; 1 mg/kg BID oral gavage): 110%; IC50 (PBMCs [2]; read-out: IC50 Values for Inhibition of Cytokine Release PBMCs TNFα): 0.7 nM
3 | C#Cc1cc(Nc2nccc(Oc3ccc(NC(=O)Nc4cc(C(C)(C)C)cc(NS(C)(=O)=O)c4OC)c4ccccc34)n2)cc(C(=O)NCCOCCOCCOC)c1 [Example 16, 3-((4-((4-(3-(5-(tert-Butyl)-2-methoxy-3-(methylsulfonamido)phenyl)ureido)naphthalen-1-yl)oxy)pyrimidin-2-yl)amino)-5-ethynyl-N-(2-(2-(2-methoxyethoxy)ethoxy)ethyl)benzamide] | displayed substantial activity | no dose-related or statistically significant increases in revertant colonies | significantly reduced | 1.5 | 100 | 20.5 | 4.8 | no dose-related or statistically significant increases in revertant colonies | activity in adoptive transfer model (ratios of colon weight to length) (SCID animals; end of the study): displayed significant activity; % Parent Remaining ([3]; DMSO/water 3:1, 60° C., 300 min): 100%; % Parent Remaining ([3]; DMSO/water 3:1, 60° C., 1440 min): 100%; concentration at 0.25 h [5, 8]: 0 ng/mL; concentration at 0.5 h [5, 8]: 0 ng/mL; concentration at 1 h [5, 8]: 0 ng/mL; concentration at 2 h [5, 8]: 0 ng/mL; concentration at 4 h [5, 8]: 0 ng/mL; concentration at 6 h [5, 8]: 0 ng/mL; concentration at 8 h [5, 8]: 0 ng/mL; concentration at 12 h [5, 8]: 0 ng/mL; concentration at 24 h [5, 8]: 0 ng/mL
